Counter-ions that a name gives are not always drawn.
Each compound was assayed against IRAK4 (Homo sapiens (Human), UniProt Q9NWZ3) (assay: IRAK4 Kinase Assay). Details: IMAP fluorescence polarization, 0.5 nM GST tagged IRAK4, 100 μM ATP, 30 minutes at 25° C.; read-out: IRAK4 IC50.
Type: biochemical

Sequence of IRAK4 (Q9NWZ3 whole entry): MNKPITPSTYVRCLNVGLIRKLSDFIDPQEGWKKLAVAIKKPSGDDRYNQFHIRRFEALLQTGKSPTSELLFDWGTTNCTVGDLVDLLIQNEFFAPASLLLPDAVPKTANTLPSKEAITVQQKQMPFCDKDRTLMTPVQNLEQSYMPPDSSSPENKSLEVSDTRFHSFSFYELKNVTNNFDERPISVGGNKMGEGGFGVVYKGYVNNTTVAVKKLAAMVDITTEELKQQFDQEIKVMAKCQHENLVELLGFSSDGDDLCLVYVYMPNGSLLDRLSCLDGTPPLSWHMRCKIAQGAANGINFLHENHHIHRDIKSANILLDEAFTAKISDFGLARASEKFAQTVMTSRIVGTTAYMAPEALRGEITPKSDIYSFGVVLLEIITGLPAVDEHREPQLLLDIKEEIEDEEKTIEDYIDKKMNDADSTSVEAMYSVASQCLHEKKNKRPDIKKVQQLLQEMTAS

Compound	IC50
Cn1cc(NC(=O)c2cnn3ccc(N[C@@H]4CCCC[C@@H]4O)nc23)c(Cl)n1 [Example 186, N-(3-chloro-1-methyl-1H-pyrazol-4-yl)-5-{[(1R,2S)-2-hydroxycyclohexyl]amino} pyrazolo[1,5-a]pyrimidine-3-carboxamide]	24 nM
C[C@@H]1CN(c2ccn3ncc(C(=O)Nc4cn(C)nc4C(F)(F)F)c3n2)[C@H](C)CN1 (relative stereo) [Example 75, 5-[cis-2,5-dimethylpiperazin-1-yl]-N-[1-methyl-3-(trifluoromethyl)-1H-pyrazol-4-yl]pyrazolo[1,5-a]pyrimidine-3-carboxamide trifluoroacetate]	55 nM
Cn1cc(NC(=O)c2cnn3ccc(N[C@H]4CCCCNC4)nc23)c(C(F)F)n1 (single isomer, unassigned) [Example 163, 5-[(3S)- or (3R)-azepan-3-ylamino]-N-[3-(difluoromethyl)-1-methyl-1H-pyrazol-4-yl]pyrazolo[1,5-a]pyrimidine-3-carboxamide trifluoroacetate]	7 nM
Cn1cc(NC(=O)c2cnn3ccc(N4CCC[C@H](O)C4)nc23)c(C(F)F)n1 [Example 26, N-[3-(difluoromethyl)-1-methyl-1H-pyrazol-4-yl]-5-[(3S)-3-hydroxypiperidin-1-yl]pyrazolo[1,5-a]pyrimidine-3-carboxamide]	0.5 nM
O=C(Nc1ccccc1Cl)c1cnn2ccc(N[C@@H]3CCCC[C@@H]3O)nc12 [Example 194, N-(2-chlorophenyl)-5-{[(1R,2S)-2-hydroxycyclohexyl]amino} pyrazolo[1,5-a]pyrimidine-3-carboxamide]	1750 nM
N#Cc1sccc1NC(=O)c1cnn2ccc(N[C@@H]3CCCC[C@@H]3O)nc12 [Example 187, N-(2-cyanothiophen-3-yl)-5-{[(1R,2S)-2-hydroxycyclohexyl]amino} pyrazolo[1,5-a]pyrimidine-3-carboxamide]	250 nM
Cn1cc(NC(=O)c2cnn3ccc(N4C[C@H]5CC[C@@H]4CN5)nc23)c(Br)n1 (single isomer, unassigned) [Example 165, N-(3-bromo-1-methyl-1H-pyrazol-4-yl)-5-[(1S,4S)- or (1R,4R)-2,5-diazabicyclo[2.2.2]oct-2-yl]pyrazolo[1,5-a]pyrimidine-3-carboxamide trifluoroacetate]	19 nM
Cn1cc(NC(=O)c2cnn3ccc(N[C@@H]4CNC[C@@H](F)C4)nc23)c(C(F)(F)F)n1 [Example 255, 5-{[(3S,5S)-5-fluoropiperidin-3-yl]amino}-N-[1-methyl-3-(trifluoromethyl)-1H-pyrazol-4-yl]pyrazolo[1,5-a]pyrimidine-3-carboxamide]	36 nM
Cn1cc(NC(=O)c2cnn3ccc(N4CC5CC(C4)N5)nc23)c(C(F)(F)F)n1 [Example 19, 5-(3,6-diazabicyclo[3.1.1]hept-3-yl)-N-[1-methyl-3-(trifluoromethyl)-1H-pyrazol-4-yl]pyrazolo[1,5-a]pyrimidine-3-carboxamide trifluoroacetate]	389 nM
O=C(Nc1ccccc1C(F)F)c1cnn2ccc(N3CCCNCC3)nc12 [Example 130, 5-(1,4-diazepan-1-yl)-N-[2-(difluoromethyl)phenyl] pyrazolo[1,5-a]pyrimidine-3-carboxamide]	8810 nM
O=C(Nc1cn(CC(F)(F)F)nc1C(F)(F)F)c1cnn2ccc(N3CCNCC4(CC4)C3)nc12 [Example 70, 5-(5,8-diazaspiro[2.6]non-5-yl)-N-[1-(2,2,2-trifluoroethyl)-3-(trifluoromethyl)-1H-pyrazol-4-yl]pyrazolo[1,5-a]pyrimidine-3-carboxamide trifluoroacetate]	51 nM
Cn1cc(NC(=O)c2cnn3ccc(N4C[C@H]5CNC[C@@H]4C5)nc23)c(C(F)F)n1 (single isomer, unassigned) [Example 240, 5-[(1S,5R)- or (1R,5S)-3,6-diazabicyclo[3.2.1]oct-6-yl]-N-[3-(difluoromethyl)-1-methyl-1H-pyrazol-4-yl]pyrazolo[1,5-a]pyrimidine-3-carboxamide]	43 nM
Cn1cc(NC(=O)c2cnn3ccc(N[C@@H]4CNCC(F)(F)C4)nc23)c(C(F)F)n1 (single isomer, unassigned) [Example 228, N-[3-(difluoromethyl)-1-methyl-1H-pyrazol-4-yl]-5-{[(3S)- or (3R)-5,5-difluoropiperidin-3-yl]amino}pyrazolo[1,5-a]pyrimidine-3-carboxamide]	59 nM

Second part, the compound after the results:

IC50	Compound
480 nM	O=C(Nc1cscc1Cl)c1cnn2ccc(N3CCCNCC3)nc12 [Example 167, N-(4-chlorothiophen-3-yl)-5-(1,4-diazepan-1-yl)pyrazolo[1,5-a]pyrimidine-3-carboxamide trifluoroacetate]
4 nM	Cn1cc(NC(=O)c2cnn3ccc(N4CCCNCC4)nc23)c(C(F)F)n1 [Example 87, 5-(1,4-diazepan-1-yl)-N-[3-(difluoromethyl)-1-methyl-1H-pyrazol-4-yl]pyrazolo[1,5-a]pyrimidine-3-carboxamide trifluoroacetate]
0.5 nM	Cn1cc(NC(=O)c2cnn3ccc(N4CC[C@H](F)[C@H](N)C4)nc23)c(C(F)F)n1 (single isomer, unassigned) [Example 179, 5-[(3S,4R)- or (3R,4S)-3-amino-4-fluoropiperidin-1-yl]-N-[3-(difluoromethyl)-1-methyl-1H-pyrazol-4-yl]pyrazolo[1,5-a]pyrimidine-3-carboxamide trifluoroacetate]
267 nM	O=C(Nc1cn(CC(F)(F)F)nc1C(F)(F)F)c1cnn2ccc(N3CC4CCC3CN4)nc12 (stereo not drawn) [Example 58, 5-(2,5-diazabicyclo[2.2.2]oct-2-yl)-N-[1-(2,2,2-trifluoroethyl)-3-(trifluoromethyl)-1H-pyrazol-4-yl]pyrazolo[1,5-a]pyrimidine-3-carboxamide trifluoroacetate]
1360 nM	N#Cc1ccccc1NC(=O)c1cnn2ccc(N3CCCNCC3)nc12 [Example 273, N-(2-cyanophenyl)-5-(1,4-diazepan-1-yl)pyrazolo[1,5-a]pyrimidine-3-carboxamide trifluoroacetate]
0.5 nM	Cn1cc(NC(=O)c2cnn3ccc(N[C@H]4CNCCC4(F)F)nc23)c(C(F)F)n1 (single isomer, unassigned) [Example 244, N-[(R or S)-3-(difluoromethyl)-1-methyl-1H-pyrazol-4-yl]-5-[(4,4-difluoropiperidin-3-yl)amino]pyrazolo[1,5-a]pyrimidine-3-carboxamide trifluoroacetate]
0.9 nM	N#Cc1sccc1NC(=O)c1cnn2ccc(N[C@@H]3CCCC[C@@H]3N)nc12 [Example 42, 5-{[(1R,2S)-2-aminocyclohexyl]amino}-N-(2-cyanothiophen-3-yl)pyrazolo[1,5-a]pyrimidine-3-carboxamide trifluoroacetate]
8 nM	N[C@H]1CCCC[C@H]1Nc1ccn2ncc(C(=O)Nc3ccoc3C(F)(F)F)c2n1 [Example 45, 5-{[(1R,2S)-2-aminocyclohexyl]amino}-N-[2-(trifluoromethyl)furan-3-yl]pyrazolo[1,5-a]pyrimidine-3-carboxamide trifluoroacetate]
2 nM	Cn1cc(NC(=O)c2cnn3ccc(N[C@H]4CNCCC4(F)F)nc23)c(C(F)F)n1 (single isomer, unassigned) [Example 242, N-[(R or S)-3-(difluoromethyl)-1-methyl-1H-pyrazol-4-yl]-5-[(4,4-difluoropiperidin-3-yl)amino]pyrazolo[1,5-a]pyrimidine-3-carboxamide trifluoroacetate]
17 nM	N[C@H]1CCCC[C@H]1Nc1ccn2ncc(C(=O)Nc3csc(CO)c3)c2n1 [Example 275, 5-(((1R,2S)-2-Aminocyclohexyl)amino)-N-(5-(hydroxymethyl)thiophen-3-yl)pyrazolo[1,5-a]pyrimidine-3-carboxamide]
890 nM	CC(C)(C)n1cc(NC(=O)c2cnn3ccc(N[C@@H]4CCCC(F)(F)[C@@H]4N)nc23)c(C(F)(F)F)n1 [Example 49, 5-{[(1R,2R)-2-amino-3,3-difluorocyclohexyl]amino}-N-[1-tert-butyl-3-(trifluoromethyl)-1H-pyrazol-4-yl]pyrazolo[1,5-a]pyrimidine-3-carboxamide trifluoroacetate]
6 nM	Cn1cc(NC(=O)c2cnn3ccc(NC4CCCCNC4)nc23)c(C(F)(F)F)n1 (stereo not drawn) [Example 12, 5-(azepan-3-ylamino)-N-[1-methyl-3-(trifluoromethyl)-1H-pyrazol-4-yl]pyrazolo[1,5-a]pyrimidine-3-carboxamide hydrochloride]
72 nM	Cn1cc(NC(=O)c2cnn3ccc(N4CCNC(C5CC5)C4)nc23)c(C(F)(F)F)n1 (stereo not drawn) [Example 28, 5-(3-cyclopropylpiperazin-1-yl)-N-[1-methyl-3-(trifluoromethyl)-1H-pyrazol-4-yl]pyrazolo[1,5-a]pyrimidine-3-carboxamide trifluoroacetate]
72 nM	CN(C)[C@H]1CCCC[C@H]1Nc1ccn2ncc(C(=O)Nc3cn(C)nc3C(F)(F)F)c2n1 [Example 263, 5-(((1R,2S)-2-(Dimethylamino)cyclohexyl)amino)-N-(1-methyl-3-(trifluoromethyl)-1H-pyrazol-4-yl)pyrazolo[1,5-a]pyrimidine-3-carboxamide]
359 nM	N#Cc1cscc1NC(=O)c1cnn2ccc(N3CCCNCC3)nc12 [Example 141, N-(4-cyanothiophen-3-yl)-5-(1,4-diazepan-1-yl)pyrazolo[1,5-a]pyrimidine-3-carboxamide trifluoroacetate]
86 nM	O=C(Nc1cscc1C(F)F)c1cnn2ccc(N3C[C@@H]4CC[C@H]3CN4)nc12 (single isomer, unassigned) [Example 154, 5-[(1S,4S)- or (1R,4R)-2,5-diazabicyclo[2.2.2]oct-2-yl]-N-[4-(difluoromethyl)thiophen-3-yl]pyrazolo[1,5-a]pyrimidine-3-carboxamide trifluoroacetate]
163 nM	Cn1cc(NC(=O)c2cnn3ccc(N4C5CCC6NC5CCC64)nc23)c(C(F)(F)F)n1 [Example 102, 5-(2,7-diazatricyclo[4.4.0.0~3,8~]dec-2-yl)-N-[1-methyl-3-(trifluoromethyl)-1H-pyrazol-4-yl]pyrazolo[1,5-a]pyrimidine-3-carboxamide trifluoroacetate]
